According to US9453062B2, “Glucose dependent insulinotropic polypeptide analogs, pharmaceutical compositions and use thereof” (Beijing Hanmi Pharmaceutical Co., Ltd., priority 2011, dated 2016):
pEC50: −log10 of the molar value. Read-outs that look alike come from different tables or passages of the source. Where a SMILES comes first, the peptide text is derived from it. Where no end group is shown, it is not given here. [ ]: non-standard residue; d: D form. Phe(4-NO2) = N[C@@H](Cc1ccc([N+](=O)[O-])cc1)C(=O)O; Met(O) = CS(=O)CC[C@H](N)C(=O)O; Phg = N[C@H](C(=O)O)c1ccccc1; Nle = CCCC[C@H](N)C(=O)O; Aib = CC(C)(N)C(=O)O

How the values were obtained:
hGIPR = target: T1, hGIPR (Homo sapiens, UniProt P48546); assay: hGIPR-mediated cAMP induction assay in CHO cell line; assay type: cell-based; details: for GIP Receptor Relative Potency: against native GIP
T1 construct: expressed in transfected cells; host or cells: CHO
T1 sequence (P48546 22-466): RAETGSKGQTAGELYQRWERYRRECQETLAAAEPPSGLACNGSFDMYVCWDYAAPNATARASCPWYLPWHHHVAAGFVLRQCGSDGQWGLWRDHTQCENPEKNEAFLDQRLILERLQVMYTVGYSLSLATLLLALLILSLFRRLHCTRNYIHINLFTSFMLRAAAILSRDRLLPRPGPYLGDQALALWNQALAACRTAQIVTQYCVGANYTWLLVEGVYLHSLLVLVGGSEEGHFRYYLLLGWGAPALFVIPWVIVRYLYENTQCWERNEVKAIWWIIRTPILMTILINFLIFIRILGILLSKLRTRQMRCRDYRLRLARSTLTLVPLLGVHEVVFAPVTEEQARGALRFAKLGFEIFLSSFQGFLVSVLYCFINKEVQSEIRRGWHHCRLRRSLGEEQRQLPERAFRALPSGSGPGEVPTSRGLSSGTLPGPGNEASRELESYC

hGLP-1R = target: T2, hGLP-1R (Homo sapiens, UniProt P43220); assay: hGLP-1R-mediated cAMP induction assay in CHO cell line; assay type: cell-based;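 further: CHO cells expressing human GLP-1R, treated 30 min at 37 °C, intracellular cAMP measured by competitive fluorescent immunoassay and converted via a cAMP standard curve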
T2 construct: expressed in transfected cells; host or cells: CHO
T2 sequence (P43220 24-463): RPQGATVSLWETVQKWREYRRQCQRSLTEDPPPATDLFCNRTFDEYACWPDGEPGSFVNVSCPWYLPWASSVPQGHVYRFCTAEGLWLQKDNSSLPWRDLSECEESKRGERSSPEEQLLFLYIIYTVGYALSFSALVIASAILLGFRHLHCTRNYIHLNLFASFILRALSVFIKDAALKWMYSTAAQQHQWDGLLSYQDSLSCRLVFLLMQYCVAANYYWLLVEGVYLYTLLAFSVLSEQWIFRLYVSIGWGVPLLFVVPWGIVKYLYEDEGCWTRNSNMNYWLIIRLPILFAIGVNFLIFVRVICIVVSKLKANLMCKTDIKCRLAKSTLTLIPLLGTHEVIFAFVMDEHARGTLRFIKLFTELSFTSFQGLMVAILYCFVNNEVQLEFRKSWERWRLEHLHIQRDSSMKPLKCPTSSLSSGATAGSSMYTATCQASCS
Description: The cAMP in the sample or standard competes with horseradish peroxidase (HRP)-labeled cAMP conjugate for binding sites on the anti-cAMP antibodies. In the absence of cAMP, most of the HRP-cAMP conjugate is bound to the antibody. Increasing concentrations of cAMP competitively decrease the amount of bound conjugate, thus decreasing measured HRP activity.
Assay kit: CatchPoint™ Cyclic-AMP Fluorescent Assay Kit (Molecular Devices, Product # R8088)
Cell lines: CHO hGLP1R, CHO hGIPR
Cell seeding: CHO hGLP1R or CHO hGIPR cells: 10,000 cells/well/100 uL at 37° C. 5% CO2 overnight.
Gently aspirate off media and wash the cells with KRBG Buffer, 100 uL/well.
Incubate the plate for 10 min at room temperature. Then add the KRBG buffer with 3× final concentration of the tested samples (5-foled series diluted from 5,000 nM), 50 uL/well. Incubate the plate at 37° C. 5% CO2 for 30 min.
Add 50 uL of Lysis buffer to each well and put the plate on a shaker for 10 min.
Place 40 uL of samples and analyze in appropriate wells. And test the cAMP concentration in each sample by following the manufacture's instruction.
Detect the fluorescence signal at Ex: 490 nm and Em: 530 nm. Transfer the FI signal to cAMP concentration by the cAMP standard curve. The Dose-response curve and EC50 were obtained by logistic fitting of Origin 8.

Molecule | GIP Receptor Relative Potency (hGIPR; Table 3) | pEC50 (hGLP-1R) | further results
CC[C@H](C)[C@H](NC(=O)[C@H](CO)NC(=O)[C@H](Cc1ccc(O)cc1)NC(=O)[C@H](CC(=O)O)NC(=O)[C@H](CO)NC(=O)[C@@H](NC(=O)[C@H](Cc1ccccc1)NC(=O)[C@@H](NC(=O)CNC(=O)[C@H](CCC(=O)O)NC(=O)C(C)(C)NC(=O)[C@@H](N)Cc1ccc(O)cc1)[C@@H](C)O)[C@@H](C)O)C(=O)N[C@@H](Cc1ccc(O)cc1)C(=O)N[C@@H](CCSC)C(=O)N[C@@H](CCC(=O)O)C(=O)N[C@@H](CCCCN)C(=O)N[C@H](C(=O)N[C@@H](Cc1c[nH]cn1)C(=O)N[C@@H](CCC(N)=O)C(=O)N[C@@H](CCC(N)=O)C(=O)N[C@@H](CC(=O)O)C(=O)N[C@@H](Cc1ccccc1)C(=O)N[C@H](C(=O)N[C@@H](CC(N)=O)C(=O)N[C@@H](Cc1c[nH]c2ccccc12)C(=O)N[C@@H](CC(C)C)C(=O)N[C@@H](CC(C)C)C(=O)N[C@@H](C)C(=O)N[C@@H](CCC(N)=O)C(N)=O)C(C)C)[C@@H](C)CC [Compound 003] (H-Y[Aib]EGTFTSDYSIYMEKIHQQDFVNWLLAQ-NH2; N-terminus assumed) | 77.7 |  | 
CC[C@H](C)[C@H](NC(=O)[C@H](CO)NC(=O)[C@H](Cc1ccc(O)cc1)NC(=O)[C@H](CC(=O)O)NC(=O)[C@H](CO)NC(=O)[C@@H](NC(=O)[C@H](Cc1ccccc1)NC(=O)[C@@H](NC(=O)CNC(=O)[C@H](CCC(=O)O)NC(=O)C(C)(C)NC(=O)[C@@H](N)Cc1ccc(O)cc1)[C@@H](C)O)[C@@H](C)O)C(=O)N[C@@H](Cc1ccc([N+](=O)[O-])cc1)C(=O)N[C@@H](CC[S+](C)[O-])C(=O)N[C@@H](CCC(=O)O)C(=O)N[C@@H](CCCCN)C(=O)N[C@H](C(=O)N[C@@H](Cc1c[nH]cn1)C(=O)N[C@@H](CCC(N)=O)C(=O)N[C@@H](CCC(N)=O)C(=O)N[C@@H](CC(=O)O)C(=O)N[C@@H](Cc1ccccc1)C(=O)N[C@H](C(=O)N[C@@H](CC(N)=O)C(=O)N[C@@H](Cc1c[nH]c2ccccc12)C(=O)N[C@@H](CC(C)C)C(=O)N[C@@H](CC(C)C)C(=O)N[C@@H](C)C(=O)N[C@@H](CCC(N)=O)C(N)=O)C(C)C)[C@@H](C)CC (stereo partly shown) [Compound 005] (H-Y[Aib]EGTFTSDYSI[Phe(4-NO2)][Met(O)]EKIHQQDFVNWLLAQ-NH2) |  | < 5.70 | 
CCCC[C@H](NC(=O)[C@@H](NC(=O)[C@@H](NC(=O)[C@H](CO)NC(=O)[C@H](Cc1ccc(O)cc1)NC(=O)[C@H](CC(=O)O)NC(=O)[C@H](CO)NC(=O)[C@@H](NC(=O)[C@H](Cc1ccccc1)NC(=O)[C@@H](NC(=O)CNC(=O)[C@H](CCC(=O)O)NC(=O)C(C)(C)NC(=O)[C@@H](N)Cc1ccc(O)cc1)[C@@H](C)O)[C@@H](C)O)[C@@H](C)CC)c1ccccc1)C(=O)N[C@@H](CCC(=O)O)C(=O)N[C@@H](CCCCN)C(=O)N[C@H](C(=O)N[C@@H](Cc1c[nH]cn1)C(=O)N[C@@H](CCC(N)=O)C(=O)N[C@@H](CCC(N)=O)C(=O)N[C@@H](CC(=O)O)C(=O)N[C@@H](Cc1ccccc1)C(=O)N[C@H](C(=O)N[C@@H](CC(N)=O)C(=O)N[C@@H](Cc1c[nH]c2ccccc12)C(=O)N[C@@H](CC(C)C)C(=O)N[C@@H](CC(C)C)C(=O)N[C@@H](C)C(=O)N[C@@H](CCC(N)=O)C(N)=O)C(C)C)[C@@H](C)CC [Compound 009] (H-Y[Aib]EGTFTSDYSI[Phg][Nle]EKIHQQDFVNWLLAQ-NH2; N-terminus assumed) |  | < 5.70 | 
CCCC[C@H](NC(=O)[C@H](C)NC(=O)[C@@H](NC(=O)[C@H](CO)NC(=O)[C@H](Cc1ccc(O)cc1)NC(=O)[C@H](CC(=O)O)NC(=O)[C@H](CO)NC(=O)[C@@H](NC(=O)[C@H](Cc1ccccc1)NC(=O)[C@@H](NC(=O)CNC(=O)[C@H](CCC(=O)O)NC(=O)C(C)(C)NC(=O)[C@@H](N)Cc1ccc(O)cc1)[C@@H](C)O)[C@@H](C)CC)[C@@H](C)CC)C(=O)N[C@@H](CCC(=O)O)C(=O)N[C@@H](CCCCN)C(=O)N[C@H](C(=O)N[C@@H](Cc1c[nH]cn1)C(=O)N[C@@H](CCC(N)=O)C(=O)N[C@@H](CCC(N)=O)C(=O)N[C@@H](CC(=O)O)C(=O)N[C@@H](Cc1ccccc1)C(=O)N[C@H](C(=O)N[C@@H](CC(N)=O)C(=O)N[C@@H](Cc1c[nH]c2ccccc12)C(=O)N[C@@H](CC(C)C)C(=O)N[C@@H](CC(C)C)C(=O)N[C@@H](C)C(=O)N[C@@H](CCC(N)=O)C(N)=O)C(C)C)[C@@H](C)CC [Compound 010] (H-Y[Aib]EGTFISDYSIA[Nle]EKIHQQDFVNWLLAQ-NH2; N-terminus assumed) |  | < 5.70 | 
CCCC[C@H](NC(=O)[C@H](Cc1ccc(O)cc1)NC(=O)[C@@H](NC(=O)[C@H](CO)NC(=O)[C@H](Cc1ccc(O)cc1)NC(=O)[C@H](CC(=O)O)NC(=O)[C@H](CO)NC(=O)[C@@H](NC(=O)[C@H](Cc1ccccc1)NC(=O)[C@@H](NC(=O)CNC(=O)[C@H](CCC(=O)O)NC(=O)C(C)(C)NC(=O)[C@@H](N)Cc1ccc(O)cc1)[C@@H](C)O)[C@@H](C)O)[C@@H](C)CC)C(=O)N[C@@H](CCC(=O)O)C(=O)N[C@@H](CCCCN)C(=O)N[C@@H](CCC(=O)O)C(=O)N[C@@H](C)C(=O)N[C@@H](CCC(N)=O)C(=O)N[C@@H](CCC(N)=O)C(=O)N[C@@H](CC(=O)O)C(=O)N[C@@H](Cc1ccccc1)C(=O)N[C@H](C(=O)N[C@@H](CC(N)=O)C(=O)N[C@@H](Cc1c[nH]c2ccccc12)C(=O)N[C@@H](CC(C)C)C(=O)N[C@@H](CC(C)C)C(=O)N[C@@H](C)C(=O)N[C@@H](CCC(N)=O)C(N)=O)C(C)C [Compound 020] (H-Y[Aib]EGTFTSDYSIY[Nle]EKEAQQDFVNWLLAQ-NH2; N-terminus assumed) | 51.8 |  | pEC50 (hGIPR): 9.57
CCCC[C@H](NC(=O)[C@H](Cc1ccc(O)cc1)NC(=O)[C@@H](NC(=O)[C@H](CO)NC(=O)[C@H](Cc1ccc(O)cc1)NC(=O)[C@H](CC(=O)O)NC(=O)[C@H](CO)NC(=O)[C@@H](NC(=O)[C@H](Cc1ccccc1)NC(=O)[C@@H](NC(=O)CNC(=O)[C@H](CCC(=O)O)NC(=O)C(C)(C)NC(=O)[C@@H](N)Cc1ccc(O)cc1)[C@@H](C)O)[C@@H](C)O)[C@@H](C)CC)C(=O)N[C@@H](CCC(=O)O)C(=O)N[C@@H](CCCCN)C(=O)N[C@H](C(=O)N[C@@H](Cc1c[nH]cn1)C(=O)N[C@@H](CCC(N)=O)C(=O)N[C@@H](CCC(N)=O)C(=O)N[C@@H](CC(=O)O)C(=O)N[C@@H](Cc1ccccc1)C(=O)N[C@H](C(=O)N[C@@H](CC(N)=O)C(=O)N[C@@H](Cc1c[nH]c2ccccc12)C(=O)N[C@@H](CC(C)C)C(=O)N[C@H](C(=O)N[C@@H](CCCNC(=N)N)C(=O)N[C@@H](CCC(N)=O)C(N)=O)C(C)C)C(C)C)[C@@H](C)CC [Compound 021] (H-Y[Aib]EGTFTSDYSIY[Nle]EKIHQQDFVNWLVRQ-NH2; N-terminus assumed) | 21.7 |  | 
CC[C@H](C)[C@H](NC(=O)[C@H](Cc1ccccc1)NC(=O)[C@H](CCC(=O)O)NC(=O)[C@H](CCC(=O)O)NC(=O)[C@@H](NC(=O)[C@H](C)NC(=O)[C@H](CCC(=O)O)NC(=O)[C@H](CCCCN)NC(=O)[C@H](CCC(=O)O)NC(=O)[C@H](CCSC)NC(=O)[C@H](Cc1ccc(O)cc1)NC(=O)[C@@H](NC(=O)[C@H](CO)NC(=O)[C@H](Cc1ccc(O)cc1)NC(=O)[C@H](CC(=O)O)NC(=O)[C@H](CO)NC(=O)[C@@H](NC(=O)[C@H](Cc1ccccc1)NC(=O)[C@@H](NC(=O)CNC(=O)[C@H](CCC(=O)O)NC(=O)C(C)(C)NC(=O)[C@@H](N)Cc1ccc(O)cc1)[C@@H](C)O)[C@@H](C)O)[C@@H](C)CC)C(C)C)C(=O)N[C@@H](C)C(=O)N[C@@H](Cc1c[nH]c2ccccc12)C(=O)N[C@@H](CC(C)C)C(=O)N[C@H](C(=O)N[C@@H](CCCCN)C(=O)NCC(N)=O)C(C)C [Compound 053-1] (H-Y[Aib]EGTFTSDYSIYMEKEAVEEFIAWLVKG-NH2; N-terminus assumed) | 34 |  | pEC50 (hGIPR; Table 3, CHO hGIPR cells): 9.30
CC[C@H](C)[C@H](NC(=O)[C@H](Cc1ccccc1)NC(=O)[C@H](CCC(=O)O)NC(=O)[C@H](CCCCN)NC(=O)[C@@H](NC(=O)[C@H](C)NC(=O)[C@H](CCC(=O)O)NC(=O)[C@H](CCCCN)NC(=O)[C@H](CCC(=O)O)NC(=O)[C@H](CCSC)NC(=O)[C@H](Cc1ccc(O)cc1)NC(=O)[C@@H](NC(=O)[C@H](CO)NC(=O)[C@H](Cc1ccc(O)cc1)NC(=O)[C@H](CC(=O)O)NC(=O)[C@H](CO)NC(=O)[C@@H](NC(=O)[C@H](Cc1ccccc1)NC(=O)[C@@H](NC(=O)CNC(=O)[C@H](CCC(=O)O)NC(=O)C(C)(C)NC(=O)[C@@H](N)Cc1ccc(O)cc1)[C@@H](C)O)[C@@H](C)O)[C@@H](C)CC)C(C)C)C(=O)N[C@@H](C)C(=O)N[C@@H](Cc1c[nH]c2ccccc12)C(=O)N[C@@H](CC(C)C)C(=O)N[C@H](C(=O)N[C@@H](CCCCN)C(=O)NCC(N)=O)C(C)C [Compound 057] (H-Y[Aib]EGTFTSDYSIYMEKEAVKEFIAWLVKG-NH2; N-terminus assumed) | 36.8 |  | pEC50 (hGIPR; Table 3, CHO hGIPR cells): 9.24
Tyr-Aib-Glu-Gly-Thr-Phe-Thr-Ser-Asp-Tyr-Ser-Ile-Tyr-Met-Glu-Lys-Ile-His-Gln-Gln-Asp-Phe-Val-Asn-Trp-Leu-Leu-Ala-Gln(NH2) (Y[Aib]EGTFTSDYSIYMEKIHQQDFVNWLLAQ-NH2) [Analog 003] |  |  | GLP-1R activation (GLP-1 activity) against native GLP-1 (hGLP-1R): ~0.2%
Tyr-Ala-Glu-Gly-Thr-Phe-Ile-Ser-Asp-Tyr-Ser-Ile-Ala-Met-Asp-Lys-Ile-His-Gln-Gln-Asp-Phe-Val-Asn-Trp-Leu-Leu-Ala-Gln(NH2) (YAEGTFISDYSIAMDKIHQQDFVNWLLAQ-NH2; listed as Homo sapiens) [GIP (1-29), initial scaffold, reference compound] |  |  | GIPR activation in vitro, in words (hGIPR; cAMP induction, liraglutide up to 1 μM): equivalent GIPR activation in vitro to that of the full-length GIP (1-42)
